Data as given in patent publication US10383335B2, “Bicyclic pyrazole pesticides” (FMC Corporation, priority 2015, dated 2019).
Read-outs that look alike come from different tables or passages of the source.

Tests used:
[1] = tested on: Western Flower Thrips (Frankliniella occidentalis (Pergande)); assay: Test C: control of Western Flower Thrips on Soleil bean plant, spray, contact and/or systemic; assay type: in vivo; conditions: sprayed at 250 ppm, adult thrips, held 6 days
Protocol: (§1) Test compounds were formulated using a solution containing 10% acetone, 90% water and 300 ppm X-77® Spreader Lo-Foam Formula non-ionic surfactant containing alkylarylpolyoxyethylene, free fatty acids, glycols and isopropanol (Loveland Industries, Inc. Greeley, Colo., USA). The formulated compounds were applied in 1 mL of liquid through a SUJ2 atomizer nozzle with ⅛ JJ custom body (Spraying Systems Co. Wheaton, Ill., USA) positioned 1.27 cm (0.5 inches) above the top of each test unit. Test compounds were sprayed at the rates indicated, and each test was replicated three times.
For evaluating control of the Western Flower Thrips (Frankliniella occidentalis (Pergande)) through contact and/or systemic means, the test unit consisted of a small open container with a 5-7-day-old Soleil bean plant inside.
Test compounds were formulated and sprayed at 250 ppm. After spraying, the test units were allowed to dry for 1 hour, and then 22-27 adult thrips were added to each unit. A black, screened cap was placed on top, and the test units were held for 6 days at 25° C. and 45-55% relative humidity.

[2] = tested on: green peach aphid (Myzus persicae (Sulzer)); assay: Test A: control of green peach aphid on radish plant, spray, contact and/or systemic; assay type: in vivo; conditions: 144 h, assessed after 6 days; for mortality at 50 ppm: sprayed at 50 ppm; for mortality at 250 ppm: sprayed at 250 ppm
Protocol: as §1
For evaluating control of green peach aphid (Myzus persicae (Sulzer)) through contact and/or systemic means, the test unit consisted of a small open container with a 12-15-day-old radish plant inside. This was pre-infested by placing on a leaf of the test plant 30-40 aphids on a piece of leaf excised from a culture plant (cut-leaf method). The aphids moved onto the test plant as the leaf piece desiccated. After pre-infestation, the soil of the test unit was covered with a layer of sand.
Test compounds were formulated and sprayed at 250 and/or 50 ppm. After spraying of the formulated test compound, each test unit was allowed to dry for 1 hour and then a black, screened cap was placed on top. The test units were held for 6 days in a growth chamber at 19-21° C. and 50-70% relative humidity. Each test unit was then visually assessed for insect mortality.

[3] = tested on: cotton melon aphid (Aphis gossypii (Glover)); assay: Test B: control of cotton melon aphid on cotton plant, spray, contact and/or systemic; assay type: in vivo; conditions: 144 h
Protocol: as §1
For evaluating control of cotton melon aphid (Aphis gossypii (Glover)) through contact and/or systemic means, the test unit consisted of a small open container with a 6-7-day-old cotton plant inside. This was pre-infested with 30-40 insects on a piece of leaf according to the cut-leaf method, and the soil of the test unit was covered with a layer of sand.
Test compounds were formulated and sprayed at 250 and/or 50 ppm. After spraying, the test units were maintained in a growth chamber for 6 days at 19° C. and 70% relative humidity. Each test unit was then visually assessed for insect mortality.

[4] = tested on: sweetpotato whitefly (Bemisia tabaci (Gennadius)); assay: Test D: control of sweetpotato whitefly on cotton plant, spray, contact and/or systemic; assay type: in vivo; conditions: 312 h, sprayed at 250 ppm, cotton plant infested with eggs, assessed after 13 days
Protocol: as §1
For evaluating control of the sweetpotato whitefly (Bemisia tabaci (Gennadius)) through contact and/or systemic means, the test unit consisted of a small open container with a 12-14-day-old cotton plant inside. Prior to the spray application, both cotyledons were removed from the plant, leaving one true leaf for the assay. Adult whiteflies were allowed to lay eggs on the plant and then were removed from the test unit. Cotton plants infested with at least 15 eggs were submitted to the test for spraying.
Test compounds were formulated and sprayed at 250 and/or 50 ppm. After spraying, the test units were allowed to dry for 1 hour. […] Each test unit was then visually assessed for insect mortality.

[5] = sprayed at 250 ppm, cotton plant, assessed after 6 days, read-out: mortality

Molecule | control efficacy (30% or less plant damage and/or 100% mortality) [1] | mortality at 250 ppm [2] [%] | mortality at 250 ppm [3, 5] [%] | also measured
2,4,6,7-tetrahydro-2-(3-pyridinyl)-N-(2,2,2-trifluoromethyl)-5H-pyrazolo[4,3-c]pyridine-5-carboxamide [Compound 15] | very good to excellent levels of control efficacy | – | – | –
COC(=O)NNC(=O)N1CCc2nn(-c3cccnc3)cc2C1 [Compound 10, 2,4,6,7-tetrahydro-2-(3-pyridinyl)-5H-pyrazolo[4,3-c]pyridine-5-carboxylic acid, 2-(methoxycarbonyl)hydrazide] | very good to excellent levels of control efficacy | ≥ 80 | – | mortality at 50 ppm [2]: ≥ 80%
COC(CN(C)C(=O)N1CCc2nn(-c3cccnc3)cc2C1)OC [Compound 14, 2,4,6,7-tetrahydro-N-methyl-2-(3-pyridinyl)-N-(2,2-dimethoxyethyl)-5H-pyrazolo[4,3-c]pyridine-5-carboxamide] | – | ≥ 80 | – | mortality at 50 ppm [2]: ≥ 80%
FC(F)(F)c1ccc(N2CCc3nn(-c4cccnc4)cc3C2)nc1 [Compound 19] | very good to excellent levels of control efficacy | – | – | –
FC(F)(F)c1cc(N2CCc3nn(-c4cccnc4)cc3C2)ccn1 [Compound 20, 4,5,6,7-tetrahydro-2-(3-pyridinyl)-5-[2-(trifluoromethyl)-4-pyridinyl]-2H-pyrazolo[4,3-c]pyridine] | very good to excellent levels of control efficacy | ≥ 80 | – | mortality at 50 ppm [2]: ≥ 80%
O=C(CCSCC(F)(F)F)N1CCc2nn(-c3cccnc3)cc2C1 [Compound 22, 1-[2,4,6,7-tetrahydro-2-(3-pyridinyl)-5H-pyrazolo[4,3-c]pyridin-5-yl]-3-[(2,2,2-trifluoroethyl)thio]-1-propanone] | very good to excellent levels of control efficacy | ≥ 80 | ≥ 80 | –
O=C(CC[S+]([O-])CC(F)(F)F)N1CCc2nn(-c3cccnc3)cc2C1 (stereo not shown) [Compound 23, 1-[2,4,6,7-tetrahydro-2-(3-pyridinyl)-5H-pyrazolo[4,3-c]pyridin-5-yl]-3-[(2,2,2-trifluoroethyl)sulfinyl]-1-propanone] | very good to excellent levels of control efficacy | ≥ 80 | ≥ 80 | –
O=C(NCC(F)(F)F)N1CCc2nn(-c3cccnc3)cc2C1 [Compound 28] | – | – | – | melting point: 118.3 to 155.3 °C
CNC(=O)N1CCc2nn(-c3cccnc3)cc2C1 [Compound 29] | – | – | – | melting point: 212 to 224.2 °C
CCNC(=O)N1CCc2nn(-c3cccnc3)cc2C1 [Compound 31] | – | – | – | melting point: 151.1 to 170.5 °C
COC1CC(NC(=O)N2CCc3nn(-c4cccnc4)cc3C2)C1 (stereo not shown) [Compound 47, 2,4,6,7-tetrahydro-N-(3-methoxycyclobutyl)-2-(3-pyridinyl)-5H-pyrazolo[4,3-c]pyridine-5-carboxamide] | – | – | ≥ 80 | –
c1cncc(-n2cc3c(n2)CCN(c2cnccn2)C3)c1 [Compound 48, 4,5,6,7-tetrahydro-2-(3-pyridinyl)-5-(2-pyrazinyl)-2H-pyrazolo[4,3-c]pyridine] | – | – | ≥ 80 | –
c1ccc(N2CCc3nn(-c4cccnc4)cc3C2)nc1 [Compound 49] | – | – | – | melting point: 117 to 125.1 °C
CN(C)C(=O)OCC(=O)N1CCc2nn(-c3cccnc3)cc2C1 [Compound 51, 2-oxo-2-[2,4,6,7-tetrahydro-2-(3-pyridinyl)-5H-pyrazolo[4,3-c]pyridin-5-yl]ethyl N,N-dimethylcarbamate] | – | – | – | mortality at 250 ppm [3]: ≥ 80%
c1cncc(N2CCc3nn(-c4cccnc4)cc3C2)c1 [Compound 52] | – | ≥ 80 | – | mortality at 250 ppm [4]: ≥ 50%
N#CCC(=O)N1CCc2nn(-c3cccnc3)cc2C1 [Compound 54, 2,4,6,7-tetrahydro-β-oxo-2-(3-pyridinyl)-5H-pyrazolo[4,3-c]pyridine-5-propanenitrile] | – | ≥ 80 | ≥ 80 | mortality at 250 ppm [4]: ≥ 50%
